We go through seven compounds from patent US11814352B2, “Salts formed by 2-(1-acyloxy-n-pentyl) benzoic acid and basic amino acid or aminoguanidine, and preparation method and application thereof” (JIANGSU KANION PHARMACEUTICAL CO., LTD., priority 2018, dated 2023).

For data set [1], the system named is bleeding time in mice after tail cutting. In words: Effect on bleeding time in mice after tail cutting. Conditions: 5 mg/kg orally once a day for 14 days, 1 h after last dose. It is filed as in vivo, Kunming mice. The protocol: SPF Kunming mice, weighing 18-22 g, purchased from Beijing Vital River Laboratory Animal Technology Co., Ltd., having a certificate number of SCXK (Beijing) 2010-0002, raised in an SPF animal room with indoor temperature controlled at 23±2° C., and allowed to freely eat and drink. The day and night time was 12 h/12 h.
The administration dose level of the positive drug groups and the test drug groups was 5 mg/kg, and the same amount of normal saline was given to the negative control group. All mice were administered for 14 consecutive days orally once a day. One hour after the last dose, the mice were anesthetized with 1-2% isoflurane, and the tails were cut for 5 mm. The tips of the tails were absorbed dry with filter paper every 30 seconds until the bleeding stopped naturally. Bleeding time is defined as the interval between the start and stop of bleeding.

The nature of data set [2]: Pharmacokinetics of metabolites in rat plasma after intravenous injection of I1s. Format: in vivo, SD male rats. Conditions: metabolite in rat plasma after I1s 25 mg/kg tail vein, rats 1-3. The procedure: (§1) 12 clean SD male rats, provided by Qinglongshan Animal Breeding Farm in Jiangning District, Nanjing. The production license number is SCXK (Jiangsu) 2017-0001. The body weight of the rats ranges from 180 to 220 g. The rats were used after being raised in the laboratory of an experimental animal center for 2 days after purchase, fasted for 12 hours before administration and 6 hours after administration, and were allowed to freely drink during the test period.
(§2) The concentration of the original drugs and metabolites in the rat blood were determined by LC-MS/MS, and WinNonlin pharmacokinetics professional software and a statistical moment method were used for calculation to obtain the corresponding pharmacokinetic parameters.

A short description of data set [3]: Concentration of metabolites in rat brain tissue after intravenous injection of I1s. Conditions: for Passage through the blood-brain barrier: detected in rat brain tissue after iv I1s; for concentration at 6 h: male, Sprague-Dawley, rat, brain, iv, 25 mg/kg, read-out: Concentration in brain tissue (single rats). Format: in vivo. The protocol:
as §1, §2

Assay in data set [4]: as above
Particulars: male, Sprague-Dawley, rat, brain, iv, 25 mg/kg; for concentration at 0.5 h: 0.5 h after intravenous injection of I1s; for concentration at 1 h: 1 h after intravenous injection of I1s. It is filed as in vivo.

Data set [5] has as its system ADP induced platelet aggregation. In words: In vitro anti-platelet aggregation, ADP induced (turbidimetry, PRP). Format: cell-based, rabbits. The procedure:
(§3) The animals were used for experiments after 1 week.
(§4) The common carotid artery was separated, and a polyethylene tube was inserted into the common carotid artery to collect blood. […] The upper beige suspension was pipetted to obtain the platelet-rich plasma (PRP). […] The PRP was adjusted with the PPP to make the platelet count at 1×10^8/mL.
(§5) 260 μL of platelet-rich plasma (PRP) was added into a turbidimetric tube. Then 10 μL of test compounds with different concentrations, positive control drugs or normal saline were separately added, and the plasma was incubated at 37° C. for 5 min. Then 30 μL of inducers were added in sequence. The final concentration of an inducer ADP is 10 μM, and the final concentration of an inducer AA is 1 mM. […] Inhibition rate of platelet aggregation (IRPA)=(platelet aggregation rate of the control group−platelet aggregation rate of the experimental group)/platelet aggregation rate of the control group×100%.

In data set [6] the test system is AA induced platelet aggregation. In words: In vitro anti-platelet aggregation, AA induced (turbidimetry, PRP). Format: cell-based, rabbits. The procedure: as §3, §4, §5
For the next data set, the system named is MCAO rats. Kind of data set: Cerebral infarction, cerebral edema and nerve function of rats with focal cerebral ischemia (MCAO). It is filed as in vivo, SD rats. Particulars: 5 mg/kg. The procedure: The total number of the animals was 88.
Sham operation group: equal volume of normal saline (containing 1% DMSO) (iv. 3 days), TTC, cerebral edema and neurological function score (n=8); […]
The middle cerebral arteries of the rats were blocked by a suture-occluded method, and reperfused after 2 h. […] All drugs were formulated into normal saline solutions containing 1% DMSO for administration, and the duration of administration was controlled at approximately 1 min. […] 2 h after the last administration, the neurological defect scores were firstly obtained, and then the rats of each group were sacrificed. The whole brains were taken out and weighed (wet weight), TTC stained, and dried to determine the effects of the compounds on cerebral infarction and cerebral edema.
2 h after the last administration, the neurological defects of the animals were graded and scored by the Longa's method.
After the neurobehavioral examination was completed, four coronal incisions were made on the whole brains of the rats on the optic chiasma and 2 mm anteroposterior positions of the optic chiasma. After the whole brains were cut into five slices, the brain slices were quickly placed in 5 ml of phosphate buffer solution containing 2% TTC, and incubated at 37° C. in the dark. In the incubation process, the brain slices were turned once every 5 min. After 10 min of incubation, the brain slices were taken out and pictures were taken with a digital camera (Olympus C-4000, Japan).
The calculation formula of brain water content is as follows: Water content of brain tissue (%)=(wet weight of brain tissue−dry weight of brain tissue)/wet weight of brain tissue×100%; Cerebral edema rate (%)=water content of brain tissue of each group (%)−water content of brain tissue of sham operation group (%)/water content of brain tissue of sham operation group (%)×100%; Inhibition rate of cerebral edema (%)=(rate of cerebral edema of model group (%)−rate of cerebral edema of administration group (%))/rate of cerebral edema of model group (%)×100%.

The conditions of data set [7]: literature value; cited from earlier work.
In data set [8] the test system is arteriovenous bypass thrombosis in rats. Kind of data set: Effect on arteriovenous bypass thrombosis in rats. Format: in vivo, SD rats. Particulars: 10 mg/kg/day tail vein 7 days; for inhibition at 10 mg/kg/day: Rattus norvegicus, 168 h, vs model group. The procedure: Male SD rats, weighing 250-280 g, purchased from Beijing Vital River Laboratory Animal Technology Co., Ltd., raised in an SPF breeding environment with indoor temperature controlled at 23±2° C., and allowed to freely eat and drink. The total number of the animals is 64.
Model group: injected with the same volume of normal saline (containing 1% DMSO) through the tail vein, and administered continuously for 7 days. The test was started 2 h after the last dose (n=8).
The dose of all drugs was 10 mg/kg/day. The drugs were formulated into normal saline solutions containing 1% DMSO, and injected through the tail vein for 7 consecutive days. The test was started 2 hours after the last dose (n=8).
The rats were intraperitoneally injected with a 3% pentobarbital sodium solution (30 mg/kg). After anesthesia, the rats were immobilized in the supine position, and a median cervical incision was made to separate the right common carotid artery and left external jugular vein. A 6 cm long suture was put in the middle of a polyethylene tube (the suture needs to be weighed before being put in the tube), and the polyethylene tube was filled with heparin saline (50 U/mL). The polyethylene tube was inserted into the separated blood vessels to make the artery and vein form a loop. After 15 min of circulation of the blood flow, the suture was taken out, and the suture with thrombus was collected and weighed immediately. Then, after the suture was dried at room temperature for 24 h, the dry weight was determined. The total weight minus the weight of the suture was the wet weight of the thrombus, and the dry weight minus the weight of the suture was the dry weight of the thrombus.

Where [9] appears, read: male, Sprague-Dawley, rat, plasma, iv, 25 mg/kg.
The mark [10] stands for this setting: male, Sprague-Dawley, rat, plasma, iv, 25 mg/kg, read-out: AUC(0-t).
The mark [11] stands for this setting: male, Sprague-Dawley, rat, plasma, iv, 25 mg/kg, read-out: Cmax.
The mark [12] stands for this setting: 6 h after intravenous injection of I1s.
Where [13] appears, read: read-out: Concentration in brain tissue (single rats).
[14] abbreviates: read-out: Concentration in brain tissue, Mean.
The mark [15] stands for this setting: read-out: IC50 AA (1 mM), rabbit PRP, inducer AA 1 mM, 37° C.
The mark [16] stands for this setting: iv 2 h after the beginning of reperfusion.
[17] abbreviates: iv at the beginning of reperfusion.
[18] abbreviates: Oryctolagus cuniculus, Platelet, read-out: IC50 ADP (10 μM), rabbit PRP, inducer ADP 10 μM, 37° C.

A word on the melting point: it is the temperature of the solid-liquid transition. Usually AUC(0-inf) stands for total exposure, with the tail of the curve extrapolated. Broadly, the clearance is the volume of plasma or blood freed of the substance per unit of time. Broadly, the AUC(0-t) is exposure summed from dosing to a finite time, without extrapolation to infinity. By Cmax is commonly meant the maximum level reached in the sampled fluid or tissue. As usually defined, the IC50 is the midpoint of a concentration-inhibition curve. As a reminder, the half-life is how long it takes for the measured level to halve. One may read the Vz as the apparent volume that relates the amount in the body to the concentration in plasma or blood. For orientation: inhibition means the relative decrease from the control value, in per cent.

“And” between values parts separate entries of the source, which are not always exact repeats. Identical values can stand only once. Counter-ions that a name gives are not always drawn. Like-named read-outs stand apart in the source and are kept apart here.

In the case of `COC(=O)[C@H](c1ccccc1Cl)N1CCc2sccc2C1` [Clopidogrel], in [1], the Bleeding time was 25.28 ± 0.48 min.

With `CCCCC(OC(=O)CC)c1ccccc1C(=O)O` (racemic) (as salt: salt) [I2, L-Arginine (R/S)-2-(1-Propionyloxy-n-Pentyl) Benzoate], the melting point was in the range of 169 to 171 °C.

Consider `CCCC[C@H](O)c1ccccc1C(=O)O` [M3, (S)-2-(1-hydroxy-n-pentyl)benzoic acid], for which, in data set [2] (setting [9]), the area under the curve AUC(0-inf) is 624 ng·h/mL and the clearance is 668 mL/min/kg. The AUC(0-t) in data set [2] (setting [10]) was 518 ng·h/mL. Moreover, the peak concentration (Cmax) in data set [2] (setting [11]) stood at 737 ng/mL. In [2], the “AUC(0-t)” value is 577.8 ng·h/mL and 492.6 ng·h/mL; the “AUC(0-∞)” value was 673.9 ng·h/mL and 858.7 ng·h/mL; the Cl was 618.2922 mL/min/kg and 485.2238 mL/min/kg; the Cmax is 876.5 ng/mL and 569.2 ng/mL. Moreover, the “Concentration in brain tissue (single rats)” value (shortened to “Concentration in brain tissue”) in data set [3] (0.5 h after intravenous injection of I1s) was 118.09 ng/g and 137.01 ng/g. The “Concentration in brain tissue” value in data set [3] (1 h after intravenous injection of I1s) was 39.47 ng/g and 32.78 ng/g. In addition, in [3] (setting [12]), the “Concentration in brain tissue” value was 31.33 ng/g and 32.14 ng/g; the concentration at 6 h was 31.1 ng/g. Moreover, in data set [3], the “Passage through the blood-brain barrier” value was “could all pass through the blood-brain barrier”. Besides, in data set [4] (setting [13]), the concentration at 0.5 h was found to be 76.8 ng/g and the concentration at 1 h amounted to 35.5 ng/g. Besides, in data set [4] (setting [14]), the concentration at 0.5 h came out at 111 ng/g and the concentration at 1 h came out at 35.9 ng/g. For the same compound, the concentration at 6 h in data set [4] (setting [12]) was determined as 31.5 ng/g.

As to `CCCCC1OC(=O)c2ccccc21` (racemic) [(R/S)-NBP, racemic (R/S)-3-N-butyl-1(3H)-isobenzofuranone], the IC50 in data set [5] (read-out: IC50 ADP (10 μM), rabbit PRP, inducer ADP 10 μM, 37° C.) is 1360 ± 130 µM. The IC50 in data set [6] (setting [15]) was found to be 600 ± 70 µM. In the data set on MCAO rats (setting [16]), the Cerebral edema is recorded as 6.72 ± 4.05%, the Infarct volume was found to be 36.50 ± 7.58%, the “Inhibition rate of cerebral edema” value is given as 28.80% and the “Inhibition rate of infarct volume” value was 26.43%. Also, in the data set with MCAO rats (setting [17]), the Cerebral edema stood at 5.80 ± 1.83%, the Infarct volume was 28.55 ± 8.25%, the “Inhibition rate of cerebral edema” value worked out at 40.21% and the “Inhibition rate of infarct volume” value turned out to be 41.96%. For the same compound, the half-life in data set [7] is 0.733 h.

Consider `CCCC[C@H](OC(C)=O)c1ccccc1C(=O)O` [(S)-APB, (S)-2-(1-acetoxy-n-pentyl)benzoic acid], for which, in data set [5] (setting [18]), the IC50 amounted to 790 ± 80 µM. Moreover, the concentration for half-maximal inhibition (IC50) in data set [6] (setting [15]) amounted to 430 ± 50 µM. Moreover, the half-life in [2] (male, Sprague-Dawley, rat, plasma, intravenous, 25 mg/kg) was roughly 3 h. Besides, in data set [2] (setting [9]), the AUC(0-inf) came to 31800 ng·h/mL, the clearance is 13.1 mL/min/kg and the half-life was 2.71 h. Also, the AUC(0-t) in data set [2] (setting [10]) is 31700 ng·h/mL. Further, the Cmax in data set [2] (setting [11]) is 51400 ng/mL. Also, in data set [2] (listed as M2), the “AUC(0-t)” value was 28614.9 ng·h/mL and 28503.7 ng·h/mL; the “AUC(0-∞)” value was 28748.5 ng·h/mL and 28703.5 ng·h/mL; the Cl is 14.494 mL/min/kg and 14.516 mL/min/kg; the peak concentration (Cmax) is 53513.2 ng/mL and 52069.2 ng/mL. Moreover, the Vz in data set [2] (listed as M2) is 4.1842 L/kg and 4.8584 L/kg. The “Passage through the blood-brain barrier” value in [3] was “could all pass through the blood-brain barrier”. For the same compound, the concentration at 6 h in [3] (setting [12]) stood at 26.1 ng/g.

`CC(=O)Oc1ccccc1C(=O)O` [Aspirin]: the half-maximal inhibitory concentration (IC50) was found to be 780 ± 50 µM in data set [5] (setting [18]) and 160 ± 10 µM in [6] (Oryctolagus cuniculus, Platelet, read-out: IC50 AA (1 mM), rabbit PRP, inducer AA 1 mM, 37° C.). In addition, in data set [1], the Bleeding time amounted to 22.52 ± 1.31 min. Further, the “Dry weight of thrombus” value in data set [8] (2 h after last dose) came out at 6.06 ± 0.46. The “Wet weight of thrombus” value in data set [8] (2 h after last dose) came out at 21.46 ± 1.76. Also, the figures for the inhibition at 10 mg/kg/day in data set [8] (read-out: Inhibition rate (dry weight of thrombus)) and in data set [8] (read-out: Inhibition rate (wet weight of thrombus)) were 39.7% and 40.7%, respectively.

Regarding `CCCCC(OC(=O)CCC)c1ccccc1C(=O)O` (racemic) (as salt: salt) [I3, L-Arginine (R/S)-2-(1-N-Butyryloxy-n-Pentyl) Benzoate], the melting point was in the range of 152 to 153 °C.
